Laboratory results as given in patent publication US20040043904A1, “N-(4-pyrazolyl) amide derivatives, chemicals for agricultural and horticultural use, and usage of the same” (priority 2003, published 2004).

System: green peach aphid (Myzus persicae)
Test: Insecticidal effect on green peach aphid (Test Example 7)
Assay type: in vivo
Settings: 144 h, stems and leaves of Chinese cabbage sprayed, parasites counted six days after spraying, read-out: insecticidal effect (control efficacy)
Description: Insecticidal Effect on Green Peach Aphid (Myzus persicae)
A Chinese cabbage plant was planted in each of plastic pots with a diameter of 8 cm and a height of 8 cm, and green peach aphids were propagated on the plant. The number of parasites of each pot was counted.
Then, the stems and leaves were sufficiently sprayed with the test solution. After air-drying, the pots were allowed to stand in a greenhouse.
Control efficacy (%)=100[(T×Ca)/(Ta×C)]×100
Ta: number of parasites before spraying in treated group,
T : number of parasites after spraying in treated group,
Ca: number of parasites before spraying in untreated group,
[…]: number of parasites after spraying in untreated group.

Row | Compound | pest or weed control at 500 ppm [%]
1 | Cc1nn(C)c(Cl)c1NC(=O)Cc1ccc(-c2ccc(OC(F)(F)F)cc2)cc1 [Compound B-23, 5-chloro-4-(4-(4-trifluoromethoxyphenyl)phenylacetylamino)-1,3-dimethylpyrazole] | 100
2 | Cc1nn(C)c(Cl)c1NC(=O)Cc1ccc2oc(CC(C)(C)C)nc2c1 [Compound C-1, 5-chloro-4-(2-(2,2-dimethylpropyl)benzoxazole-5-ylacetylamino)-1,3-dimethylpyrazole] | 100
3 | CCn1ncc(NC(=O)Cc2ccc(Oc3ccc(C(F)(F)F)cn3)c(OC)c2)c1Cl [Compound D-33, 5-chloro-4-(3-methoxy-4-(5-trifluoromethylpyridine-2-yloxy)phenylacetylamino)-1-ethylpyrazole] | 100
4 | COc1cc(CC(=O)Nc2cnn(CCCl)c2Cl)ccc1Oc1ccc(C(F)(F)F)cn1 [Compound D-71, 5-chloro-4-(3-methoxy-4-(5-trifluoromethylpyridine-2-yloxy)phenylacetylamino)-1-(2-chloroethyl) pyrazole] | 100
5 | CCn1ncc(NC(=O)Cc2ccc(Oc3ccc(C(F)(F)F)nn3)c(OC)c2)c1Cl [Compound D-78, 5-chloro-4-(3-methoxy-4-(6-trifluoromethylpyridazine-3-yloxy)phenylacetylamino)-1-ethylpyrazole] | 100
6 | CCn1ncc(NC(=O)Cc2ccc(Oc3ccc(C(F)(F)F)cn3)c(OC)c2)c1Br [Compound D-79, 5-bromo-4-(3-methoxy-4-(5-trifluoromethylpyridine-2-yloxy)phenylacetylamino)-1-ethylpyrazole] | 100
7 | CCn1ncc(NC(=O)Cc2ccc(Oc3nc(C(F)(F)F)cs3)c(OC)c2)c1Cl [Compound D-94, 5-chloro-4-(3-methoxy-4-(4-trifluoromethylthiazole-2-yloxy)phenylacetylamino)-1-ethylpyrazole] | 100
